Measured values from US8367680B2, “Antibacterial small molecules and methods for their synthesis” (Wisconsin Alumni Research Foundation, priority 2008, dated 2013).
≈ marks a conversion by molar mass, not a printed value. Like-named read-outs stand apart in the source and are kept apart here.

Test system: MRSA
Settings: Staphylococcus aureus
Protocol: Macroarray compounds are dissolved in DMSO and pipetted into a 96-well multititer plate containing Luria-Bertani (LB) broth inoculated with MRSA. The final concentrations of the compounds selected, e.g., 50 μM, 25 μM, 12.5 μM, 6.3 μM, and 3.1 μM, with a final DMSO concentration of 2.5% for each compound in a given well. The plate is incubated with shaking at 37° C. for 18 h, and the absorbance is measured at 595 nm using a plate-reader. The approximate MIC can be determined by the complete absence of bacterial growth relative to our negative control (LB broth with no bacteria added).
For estimated MIC determination, DMSO was added to the dried compound residue obtained from a single spot to afford ca. 100 μL of a 2 mM stock solution. Aliquots (5 μL) of these solutions were added to a 96-well plate, followed by 195 μL of diluted S. aureus 10390 (10^6 CFUs/mL) to yield ca. 50 μM final concentrations. The plates were swirled for 1 h to ensure compound dissolution, incubated for 12 h at 37° C., and the absorbance at 595 nm was recorded using a plate reader. […] Actual MIC values were determined for lead compounds resynthesized in solution using an analogous procedure with solutions of known concentration.
An aliquot of DMSO (ca. 100 μL depending on the loading of the parent hydroxyacetophenone) was added to the dried compound residue obtained after TFA cleavage and elution from a single spot. This afforded a 2.0 mM “spot stock” solution for each spot.
For estimated MIC screens, 5.0 μL portions of the “spot stock” solutions were added to the appropriate wells in a sterile, polystyrene 96-well plate to yield ca. 50 μM solutions (dependent on the initial loading of hydroxyacetopheneone and compound purity). […] All estimated MIC assays were performed in quadruplicate. Note: the MIC value is defined as the lowest concentration where no bacterial growth occurs.
This assay procedure is based in part on the method reported by Strøm et al. (Strøm, M. B.; Haug, E. B.; Skar, M. L.; Stensen, W.; Stiberg, T.; Svendsen, J. S. J. Med. Chem. 2003, 46, 1567-1570.) A 400 μL portion of overnight S. aureus 10390 culture was diluted with 100 mL of sterile LB broth to give ca. 10^6 CFUs per mL. Aliquots (195 μL) of this solution were added to all of the wells in a sterile 96-well plate (except for the negative control wells; 195 μL of sterile LB broth were added to these wells). The plates were placed on an orbital shaker table and gently swirled for 1 h to ensure compound dissolution, and then incubated (without shaking) for 12 h at 37° C. The absorbance at 595 nm was recorded using a plate reader.

In the case of NC(=O)COc1cccc(C(=O)/C=C/c2cccc(C(F)(F)F)c2)c1 [Compound B18], the MIC (read-out: Solution MIC) is reported as 54 ± 1 µM (≈ 18.9 µg/mL) and the MIC (read-out: Support MIC) is reported as 25 to 50 µM (≈ 8.73 to 17.5 µg/mL).

For CC(=O)NC[C@H]1CN(c2ccc(N3CCOCC3)c(F)c2)C(=O)O1 [linezolid], the MIC (read-out: Solution MIC) was 5 ± 1 µM (≈ 1.69 µg/mL).

O=C(O)c1cn(C2CC2)c2cc(N3CCNCC3)c(F)cc2c1=O [ciprofloxacin] showed an MIC (read-out: Solution MIC) of 0.6 ± 0.2 µM (≈ 0.199 µg/mL).
